{
  "source": "patent US20140018316A1",
  "about": "“OPHTHALMIC PHARMACEUTICAL COMPOSITION” (Hayashibara Co., Ltd., priority 2005, published 2014)",
  "key": {"[1]": {"tested_on": "pig lens", "assay": "Swelling and cloudiness of extracted pig lenses soaked in test or control solutions (traumatic cataract model)", "design": "key to degree of cloudiness in the lens (relative value): relative gray-scale density; uninjured lens in saline at start = 10", "details": "for degree of cloudiness in the lens (relative value) / swelling of the lens: 100 mM in physiological saline", "procedure": "Using an injured pig lens employed as a model for traumatic cataract, the influence of cyclic tetrasaccharide on the cloudiness in the lens was experimented as follows: A test solution was previously prepared by dissolving a cyclic tetrasaccharide crystal, penta hydrate, which had been prepared by the method in the later described Reference for Example 2, in physiological saline into a physiological saline containing 100 mM cyclic tetrasaccharide. As a positive control, a physiological saline containing 100 mM α,α-trehalose, a reagent grade specimen, commercialized by Hayashibara Biochemical Laboratories, Inc., Okayama, Japan, was used; andasanegativecontrol, physiological saline was used. Two milliliter aliquots of any one of the above three kinds of aqueous solutions were added to every two wells in respective commercialized 24-well culture plates. In one of the two wells containing the same kind of solution in each plate was placed a pig lens, which had been obtained from a slaughter-house, extracted by incision within three hours after the obtention and without injuring, and washing the extracted lens with physiological saline; while in the other of the two wells was placed a pig lens, which had been prepared by the same procedure as in the above but injured with a 27-gauge injection needle (commercialized by Terumo Co., Tokyo, Japan) to form an injured line, about one millimeter in length. These lens were allowed to stand at ambient temperature and macroscopically and microscopically observed their change in the degree of cloudiness and in the shape of swelling, etc. This experiment was run in a triplicate manner, and the macroscopic and microscopic observations were done just after (0), 1 hour, 2 hours, 6 hours, and 24 hours after the lenses were placed in the wells, and then observed daily over 28 days. A similar experiment was further conducted using a physiological saline containing 75 mM, 50 mM, 20 mM, 10 mM, or 1 mM cyclic tetrasaccharide and a lens that had not been injured with the injection needle. The degree of cloudiness in each lens, observed with “STEREOMICROSCOPE SZX12”, a product name of a stereomicroscope commercialized by Olympus Co., Tokyo, Japan, was expressed by photographing a transmitted light image of each lens with “PENGUIN 150CL”, a digital camera commercialized by Pixela Co., Tokyo, Japan, capturing the transmitted image by a computer using a view finder commercialized by Olympus Co., Tokyo, Japan, and expressing numerically the degree of light and shade of the captured image as a gray-scale using “Scion Image for Windows Beta 4.0.2”, a software commercialized by Scion Co., Maryland, U.S.A., to obtain a mean density for each lens. The time course change in the degree of cloudiness in each lens placed in each solution was expressed with a relative value, regarding the degree of cloudiness, just after the lens free of injury had been placed in physiological saline, as 10. The change of cloudiness and swelling are respectively in Tables 1 and 2. In Table 1, there show only the results from time 0 hour through two days and from days 7, 14 and 28."}, "[2]": {"tested_on": "circular corneal fragment extracted from a pig eye ball", "assay": "Corneal walleye/cloudiness and edema of pig corneal fragments soaked in test or control solutions", "design": "degree of corneal walleye/cloudiness (relative value): scale not given here; key to corneal edema: ◯: Corneal edema was observed.; —: No corneal edema was observed", "details": "for corneal edema / degree of corneal walleye/cloudiness (relative value): 100 mM in physiological saline", "procedure": "Experiment to examine the influence of cyclic tetrasaccharide on corneal walleye/cloudiness was conducted as follows: A physiological saline containing 100 mM cyclic tetrasaccharide was previously prepared for use as a test solution by dissolving a cyclic tetrasaccharide crystal, pentahydrate, which had been prepared by the later described method in Example for Reference 2. As a positive control solution, it was prepared a physiological saline containing 100 mM α,α-trehalose, a reagent grade specimen, commercialized by Hayashibara Biochemical Laboratories, Inc., Okayama, Japan; and as a negative control solution, physiological saline was used. Two milliliters of any one of the above three kinds of aqueous solutions were added to respective two wells in a commercialized 24-well culture plate. To each well in each culture plate a circular corneal fragment, which had been extracted from a pig eye ball obtained from a slaughterhouse by using a trephine for corneal transplantation, was placed and macroscopically and microscopically observed for changing in both the degree of corneal walleye/cloudiness and the change of corneal shape such as corneal edema. The macroscopic and microscopic observations were done just after the corneas were placed in the wells at (0) and at 1, 2, 6, 24, 48 and 72 hours after their placing. The methods of macroscopic and microscopic observations and the analysis of the time course change of corneal walleye/cloudiness were conducted by the same ones as used in Experiment 1. Tables 3 and 4 show the transition of corneal walleye/cloudiness and that of the corneal edema, respectively."}},
  "data": [
    {"smiles": "OC[C@H]1O[C@H](O[C@H]2O[C@H](CO)[C@@H](O)[C@H](O)[C@H]2O)[C@H](O)[C@@H](O)[C@@H]1O", "note": "[Positive control solution, α,α-trehalose, reference compound]", "values": [
      {"measurement": "degree of cloudiness in the lens (relative value)", "setting": "[1]; injured lens, 1 hour", "value": 10},
      {"measurement": "degree of cloudiness in the lens (relative value)", "setting": "[1]; injured lens, 2 hours", "value": 10},
      {"measurement": "degree of cloudiness in the lens (relative value)", "setting": "[1]; injured lens, 6 hours", "value": 15},
      {"measurement": "degree of cloudiness in the lens (relative value)", "setting": "[1]; injured lens, 24 hours", "value": 46},
      {"measurement": "degree of cloudiness in the lens (relative value)", "setting": "[1]; injured lens, 2 days", "value": 89},
      {"measurement": "swelling of the lens", "setting": "[1]; injured lens, 2 days", "value": "◯ (swelling was observed)"},
      {"measurement": "degree of cloudiness in the lens (relative value)", "setting": "[1]; injured lens, time 0", "value": 10},
      {"measurement": "degree of cloudiness in the lens (relative value)", "setting": "[1]; no injury, 1 hour", "value": 13},
      {"measurement": "degree of cloudiness in the lens (relative value)", "setting": "[1]; no injury, 2 hours", "value": 13},
      {"measurement": "degree of cloudiness in the lens (relative value)", "setting": "[1]; no injury, 6 hours", "value": 12},
      {"measurement": "degree of cloudiness in the lens (relative value)", "setting": "[1]; no injury, 24 hours", "value": 14},
      {"measurement": "degree of cloudiness in the lens (relative value)", "setting": "[1]; no injury, 2 days", "value": 19},
      {"measurement": "degree of cloudiness in the lens (relative value)", "setting": "[1]; no injury, 7 days", "value": 36},
      {"measurement": "degree of cloudiness in the lens (relative value)", "setting": "[1]; no injury, 14 days", "value": 39},
      {"measurement": "degree of cloudiness in the lens (relative value)", "setting": "[1]; no injury, 28 days", "value": 75},
      {"measurement": "swelling of the lens", "setting": "[1]; no injury, 28 days", "value": "◯ (swelling was observed)"},
      {"measurement": "degree of cloudiness in the lens (relative value)", "setting": "[1]; no injury, time 0", "value": 10},
      {"measurement": "swelling of the lens (in words)", "setting": "[1]; 100 mM, injured lens, 2 days after initiating observation", "value": "observed to have swelling from 2 days"},
      {"measurement": "cloudiness in the lens compared with the negative control solution", "setting": "[1]; 100 mM, lenses with no injury", "value": "inhibited"},
      {"measurement": "swelling of the lens (in words)", "setting": "[1]; 100 mM, lenses with no injury, on 28 days", "value": "swelling of the lenses was macroscopically observed"},
      {"measurement": "corneal edema", "setting": "[2]; 1 hour", "value": "—"},
      {"measurement": "degree of corneal walleye/cloudiness (relative value)", "setting": "[2]; 1 hour", "value": 11},
      {"measurement": "corneal edema", "setting": "[2]; 2 hours", "value": "—"},
      {"measurement": "degree of corneal walleye/cloudiness (relative value)", "setting": "[2]; 2 hours", "value": 11},
      {"measurement": "corneal edema", "setting": "[2]; 6 hours", "value": "—"},
      {"measurement": "degree of corneal walleye/cloudiness (relative value)", "setting": "[2]; 6 hours", "value": 13},
      {"measurement": "corneal edema", "setting": "[2]; 24 hours", "value": "◯"},
      {"measurement": "degree of corneal walleye/cloudiness (relative value)", "setting": "[2]; 24 hours", "value": 30},
      {"measurement": "corneal edema", "setting": "[2]; 48 hours", "value": "◯"},
      {"measurement": "degree of corneal walleye/cloudiness (relative value)", "setting": "[2]; 48 hours", "value": 60},
      {"measurement": "corneal edema", "setting": "[2]; 72 hours", "value": "◯"},
      {"measurement": "degree of corneal walleye/cloudiness (relative value)", "setting": "[2]; 72 hours", "value": 70},
      {"measurement": "corneal edema", "setting": "[2]; time 0", "value": "—"},
      {"measurement": "degree of corneal walleye/cloudiness (relative value)", "setting": "[2]; time 0", "value": 10},
      {"measurement": "corneal edema (in words)", "setting": "[2]; 100 mM, at 24 hours", "value": "macroscopic corneal edema"}
    ]}
  ]
}
